This note sets out measurements from the NIST ThermoML archive (doi:10.1021/acs.jced.6b00781).

The conditions of this data set: Crystal.

± gives the expanded uncertainty stated by the source.

Take `Oc1cccc2ccccc12` [1-naphthol]: the Normal melting temperature (visual observation) was 97.39 ± 2 °C.

For the compound `Oc1ccc2ccccc2c1` [2-hydroxynaphthalene], for the setting “DTA”, the Normal melting temperature amounted to 123.83 ± 2 °C.
